Earlier results in paper PMC12525602, “Identification of Selective α-Glucosidase Inhibitors via Virtual Screening with Machine Learning” (Molecules, 2025).
Like-named read-outs stand apart in the source and are kept apart here.

Test system: α-glucosidase
Conditions: cited from earlier work; for activity (label in modeling dataset): 300-compound dataset of reported inhibitors and ineffective compounds, Table S4
[1] = Table S5 modeling dataset, activity label 1 = active, 0 = inactive
[2] = activity label of the modeling dataset (Table S5), α-glucosidase, 1 = active, 0 = inactive
[3] = activity label of the modeling dataset, Table S5
[4] = activity label of the modeling dataset, sheet Table S5, 1 = active, 0 = inactive
[5] = activity label of the 300-compound modeling dataset, Table S5
[6] = activity label in the 300-compound modeling dataset (Table S5), 1 = active, 0 = inactive
[7] = activity label of the modeling dataset, Table S5 (1 = active, 0 = inactive)

N#Cc1c(-c2ccc(Cl)cc2)cc(-c2ccc([N+](=O)[O-])cc2)c(C#N)c1N [compound 103]
activity [1]: 0

COc1cccc(Nc2nnc(-c3cc4cc(C#N)ccc4[nH]3)s2)c1 [compound 43]
activity [2]: 0

CCCCCCCCCCCCCC(=O)O [compound 141]
activity [3]: 0

Cc1ccc(-c2cc(C(F)(F)F)nn2-c2ccc(S(=O)(=O)NC(=O)c3ccc(C)c([N+](=O)[O-])c3)cc2)cc1 [compound 281]
activity [4]: 1

Cc1ccc(Cn2cc(COc3ccc(/C=N/N=C4\C(=O)N(c5ccc(Br)cc5)c5ccccc54)cc3)nn2)cc1 [compound 147]
activity [3]: 0

CCOC(=O)c1cc(-c2ccc(Br)cc2)n2nc3ccccc3c2n1 [compound 296]
activity [4]: 1

Fc1ccc(-n2cc(CSc3nnc(COc4cccc5cccnc45)o3)nn2)cc1 [compound 115]
activity [1]: 0

Cn1ccnc1SC(=O)c1ccc(-c2ccccc2F)o1 [compound 272]
activity [5]: 1

COc1ccc(-n2cc(CSc3nnc(COc4cccc5cccnc45)o3)nn2)cc1 [compound 17]
activity [2]: 0

CC(C)=CCn1c(=O)oc2c(C(=O)/C=C/c3cc(F)c(O)c(F)c3)cccc21 [compound 280]
activity [4]: 1

COc1ccc(Br)cc1-c1nnc(/N=C(/CSc2nnc3c(n2)[nH]c2ccccc23)c2ccccc2[N+](=O)[O-])s1 [compound 199]
activity [6]: 1

Cc1ccc(S(=O)(=O)NNC(=O)c2cc3cc(F)ccc3[nH]2)cc1 [compound 53]
activity [7]: 0

COc1cc(-c2oc3cc(O)cc(O)c3c(=O)c2O[C@@H]2O[C@H](CO)[C@@H](O)[C@H](O)[C@H]2O)ccc1O [compound 1, COC1=C(O)C=CC(C2=C(O[C@H]3[C@H](O)[C@@H](O)[C@H](O)[C@@H](CO)O3)C(C4=C(O)C=C(O)C=C4O2)=O)=C1]
activity (label in modeling dataset): 0 | activity [2]: 0

O=C(N/N=C/C1CC(=O)c2ccccc2O1)c1ccc(O)cc1 (stereo not drawn) [compound 250]
activity [5]: 1

O=C1/C(=N\N=C\c2ccc(OCc3cn(Cc4ccccc4)nn3)cc2)c2ccccc2N1c1ccc(Br)cc1 [compound 145]
activity [3]: 0

CC1CCN(c2ccc(/C=N/Nc3nc(-c4ccc(O)c(O)c4)cs3)cc2)CC1 [compound 79]
activity [7]: 0

O=C(COc1c(I)cc(Cl)c2cccnc12)c1ccc(Cl)cc1Cl [compound 276]
activity [5]: 1

O=C1Nc2ccccc2/C1=N/N=C/c1ccc(OCc2cn(Cc3ccc(F)cc3)nn2)cc1 [compound 271]
activity [5]: 1

O=C(O)c1ccc(-c2nc3ccc(C(=O)c4ccccc4)cc3[nH]2)cc1 [compound 5]
activity [2]: 0

COc1cc(/C=N/N=C2\C(=O)Nc3ccccc32)ccc1OCc1cn(Cc2ccccc2C)nn1 [compound 142]
activity [3]: 0

BrCCSc1nnc(COc2cccc3cccnc23)o1 [compound 57]
activity [7]: 0

COc1ccc([C@@H]2CC(=O)c3c(O)cc(O[C@@H]4O[C@H](CO[C@@H]5O[C@@H](C)[C@H](O)[C@@H](O)[C@H]5O)[C@@H](O)[C@H](O)[C@H]4O)cc3O2)cc1O [compound 185]
activity [6]: 1

COc1cc(-c2nc3ccccc3[nH]2)ccc1OCC(=O)Nc1ccc(F)cc1 [compound 261]
activity [5]: 1

N#Cc1ccc(S(=O)(=O)NNC(=O)c2cc3cc(F)ccc3[nH]2)cc1 [compound 122]
activity [1]: 0

CC1CCCN(c2ccc(/C=N/Nc3nc(-c4ccc(O)c(O)c4)cs3)cc2)C1 (stereo not drawn) [compound 93]
activity [1]: 0

CC(C)C1=CC2=CC[C@@H]3[C@](C)(CCC[C@@]3(C)C(=O)O)[C@H]2CC1 [compound 174]
activity [3]: 1

COc1ccc(/C(CSc2nnc3c(n2)[nH]c2ccccc23)=N\c2nnc(-c3ccccc3[N+](=O)[O-])s2)cc1 [compound 213]
activity [6]: 1

C=CCSc1nnc(COc2cccc3cccnc23)o1 [compound 85]
activity [7]: 0

O=C(COc1c(I)cc(Cl)c2cccnc12)c1cccc(Br)c1 [compound 268]
activity [5]: 1

C=C(C)[C@@H]1CCC2=Cc3nc(NC(=O)c4ccc(Cl)cc4)sc3[C@@H](C)[C@]2(C)C1 [compound 220]
activity [6]: 1

CC(C)=CCC1=C(O)C(CC=C(C)C)(CC=C(C)C)C(=O)C(C(=O)CC(C)C)=C1O [compound 163]
activity [3]: 1

CC1OC(Oc2cc(-c3oc4cc(O)cc(O)c4c(=O)c3O)cc(O)c2O)C(O)C(O)C1O (stereo not drawn) [compound 76]
activity [7]: 0

N#Cc1c(-c2cccnc2)cc(-c2ccccn2)c(C#N)c1N [compound 42]
activity [2]: 0

Cc1ccc(-n2cc(CSc3nnc(COc4cccc5cccnc45)o3)nn2)cc1 [compound 59]
activity [7]: 0

C[C@@H]1O[C@@H](Oc2cc(O)c3c(=O)c(O[C@@H]4O[C@@H](C)[C@H](O)[C@@H](O)[C@H]4O)c(-c4ccc(O)cc4)oc3c2)[C@H](O)[C@H](O)[C@H]1O [compound 0, C[C@H]1[C@H](O)[C@@H](O)[C@@H](O)[C@H](OC2=CC(O)=C3C(OC(C4=CC=C(O)C=C4)=C(O[C@H]5[C@H](O)[C@H](O)[C@@H](O)[C@H](C)O5)C3=O)=C2)O1]
activity (label in modeling dataset): 0 | activity [2]: 0

COc1cccc(C(=O)C2C(O)c3ccccc3S(=O)(=O)N2CC(=O)Nc2ccc([N+](=O)[O-])cc2)c1 (stereo not drawn) [compound 101]
activity [1]: 0

O=C(NNS(=O)(=O)c1cccc(Cl)c1)c1cc2cc(F)ccc2[nH]1 [compound 136]
activity [1]: 0

O=C(NNS(=O)(=O)c1ccc(C(F)(F)F)cc1)c1cc2cc(F)ccc2[nH]1 [compound 150]
activity [3]: 1

O=C(c1ccccc1)c1ccc2nc(-c3ccc(F)cc3)[nH]c2c1 [compound 95]
activity [1]: 0

Oc1cccc(-c2cc3cccc(Br)c3o2)c1 [compound 209]
activity [6]: 1

Cc1ccc(C(=O)COc2c(I)cc(Cl)c3cccnc23)cc1 [compound 238]
activity [5]: 1

COc1ccc(Nc2nnc(-c3cc4cc(C#N)ccc4[nH]3)s2)cc1 [compound 40]
activity [2]: 0

Cc1ccccc1Cn1cc(COc2ccc(/C=N/N=C3\C(=O)Nc4ccccc43)cc2)nn1 [compound 263]
activity [5]: 1

O=C1CC(/C=N/Nc2ccc(F)cc2)Oc2ccccc21 (stereo not drawn) [compound 235]
activity [5]: 1

COc1cc(/C=C(\C(=O)O)c2cc(/C=C/C(=O)O)cc(OC)c2O)ccc1O [compound 166]
activity [3]: 1

COc1cc(/C=N/N=C2\C(=O)Nc3ccccc32)ccc1OCc1cn(Cc2ccccc2)nn1 [compound 224]
activity [6]: 1

O=C(NNS(=O)(=O)c1ccc(Br)cc1)c1cc2cc(F)ccc2[nH]1 [compound 182]
activity [3]: 1

Brc1ccc(CNc2cccc(-c3nc4ccccc4[nH]3)c2)cn1 [compound 254]
activity [5]: 1

COc1ccc(OC)c(/C(CSc2nnc3c(n2)[nH]c2ccccc23)=N\c2nnc(-c3cc(Br)ccc3OC)s2)c1 [compound 198]
activity [6]: 1

COc1ccccc1/C(CSc1nnc2c(n1)[nH]c1ccccc12)=N\c1nnc(-c2ccc(Cl)c(Cl)c2)s1 [compound 243]
activity [5]: 1

O=C(COc1c(I)cc(Cl)c2cccnc12)c1ccccc1 [compound 214]
activity [6]: 1

O=C(NNS(=O)(=O)c1ccc(Cl)cc1)c1cc2cc(F)ccc2[nH]1 [compound 191]
activity [6]: 1

O=C(/C=C/c1cc(F)c(O)c(F)c1)c1cccc2[nH]c(=O)oc12 [compound 245]
activity [5]: 1

Brc1cc(-c2ccccc2)ccc1/C(CSc1nnc2c(n1)[nH]c1ccccc12)=N\c1nnc(-c2ccc3ccccc3c2)s1 [compound 152]
activity [3]: 1

CC(C)=CCc1c(O)cc2c(c1O)C(=O)CC(c1ccc(O)cc1)O2 (stereo not drawn) [compound 169]
activity [3]: 1

N#Cc1c(-c2ccncc2)cc(-c2cccnc2)c(C#N)c1N [compound 25]
activity [2]: 0

Cc1ccccc1Nc1nnc(-c2cc3cc(C#N)ccc3[nH]2)s1 [compound 14]
activity [2]: 0

CCCCCn1cc(CSc2nnc(COc3cccc4cccnc34)o2)nn1 [compound 82]
activity [7]: 0

N#Cc1c(-c2ccc(Cl)cc2)cc(-c2ccco2)c(C#N)c1N [compound 24]
activity [2]: 0

Oc1cccc(-c2nnc(/N=C(/CSc3nnc4c(n3)[nH]c3ccccc34)c3ccc(-c4ccccc4)cc3)s2)c1 [compound 269]
activity [5]: 1

CC1CCN(c2ccc(/C=N/Nc3nc(-c4ccc(O)cc4)cs3)cc2)CC1 [compound 194]
activity [6]: 1

O=C(COc1c(I)cc(Cl)c2cccnc12)c1ccc(-c2ccccc2)cc1 [compound 242]
activity [5]: 1

N#Cc1c(-c2ccncc2)cc(-c2cccc(Cl)c2)c(C#N)c1N [compound 36]
activity [2]: 0

N#Cc1c(-c2ccc(Cl)cc2)cc(-c2cccc(Br)c2)c(C#N)c1N [compound 46]
activity [7]: 0

O=C(/C=C/c1ccc(O)cc1)c1cccc2[nH]c(=O)oc12 [compound 247]
activity [5]: 1

N#Cc1ccc2[nH]c(-c3nnc(Nc4ccccc4Br)s3)cc2c1 [compound 11]
activity [2]: 0

N#Cc1ccc2[nH]c(-c3nnc(Nc4ccc(Cl)cc4)s3)cc2c1 [compound 23]
activity [2]: 0

COc1cccc(C(=O)C2C(O)c3ccccc3S(=O)(=O)N2CC(=O)Nc2ccc(Cl)cc2)c1 (stereo not drawn) [compound 178]
activity [3]: 1

N#Cc1c(-c2ccncc2)cc(-c2ccc([N+](=O)[O-])cc2)c(C#N)c1N [compound 18]
activity [2]: 0

CCCCCCCCCCCCCCCC(N)=O [compound 188]
activity [6]: 1

O=[N+]([O-])c1ccccc1-c1nnc(/N=C(/CSc2nnc3c(n2)[nH]c2ccccc23)c2ccc(-c3ccccc3)cc2)s1 [compound 223]
activity [6]: 1

O=c1c(O[C@@H]2O[C@H](CO)[C@H](O)[C@H](O)[C@H]2O)c(-c2ccc(O)c(O)c2)oc2cc(O)cc(O)c12 [compound 38]
activity [2]: 0

COc1ccc(/C=N/N=C(/C)c2ccc([N+](=O)[O-])cc2)cc1 [compound 279]
activity [4]: 1
